For data set [1], the system named is human liver microtissues. In words: Human liver microtissue (co-culture) cytotoxicity, cellular ATP. The conditions noted are these: for detection of hepatotoxicity by HepG2 72-h / human liver microtissue assays: retrospective application. The class given is cell-based. How it is done: (§1) Toxicology of TAK-994 was assessed using lnSphero’s 3D lnSight Human Liver models, based on N-acetyl-L-cysteine causality assay, glutathione depletion assay, and lipopolysaccharide (LPS)-sensitization assay. Hepatotoxicity was assessed in 7- and 14-day mono and co-culture models, in which cells were exposed to TAK-994 (0.1, 0.3, 1, 3.16, 10, 31.6, or 100 μM) […].
(§2) The test system was Human 3D InSight Liver Models, production ID hLiMT_589, cryopreserved primary human hepatocytes (Lot IPDH_18; single donor) in monoculture or in co-culture with cryopreserved primary human nonparenchymal cells (Lot IPHN_17; single donor). Human liver microtissues are composed of roughly 1000 hepatocytes and 1000 non-parenchymal live cells. Non-parenchymal liver cell fractions are expected to be composed of Kupffer cells and liver endothelial cells however, these were not identified.
The culture medium was 3D InSight Human Liver Maintenance Medium TOX (Catalogue No. CS-07-001, InSphero). The treated cells in 96-well Akura™ plates were incubated in a humidified cell culture incubator (37°C, 5% CO2).
(§3) Mono and co-culture model cells were exposed to TAK-994 (0.1, 0.3, 1, 3.16, 10, 31.6, or 100 μM in 0.5% DMSO) for 7 days (TAK-994 administered on Days 0 and 4) or 14 days (TAK-994 administered on Days 0, 5, and 9). Six replicates were tested for each condition. The vehicle control was 0.5% DMSO, and the positive control was chlorpromazine (0.1, 0.3, 1, 3.16, 10, 31.6, or 100 μM in DMSO). Cellular ATP content was measured in the cell lysate on Days 7 or 14 of treatment. LDH release was measured in the cell supernatant on Days 4 and 7 or on Days 5, 9, and 14 and normalized to lysed controls.
(§4) Intracellular ATP content in model lysates was measured with the CellTiter-Glo® 2.0 Cell Viability Assay (Catalogue No. G9243, Promega). The Bioluminescent LDH Release Toxicity Assay Kit (Catalogue No. J2380, Promega) was used to assess extracellular LDH release and normalized to lysed controls. ATP, LDH, GSH, and triglycerides were measured according to internal technical operating procedures.

Data set [2] has as its system Hepatocyte spheroids. In words: Hepatocyte spheroid (monoculture, no nonparenchymal cells) cytotoxicity, cellular ATP. It counts as cell-based, human. The conditions noted are these: Homo sapiens, Hepatocyte; cellular ATP; read-out: IC50, hepatocyte spheroids (Fig. 2B). As to the method: as §1, §2, §3, §4
In data set [3] the test system is human liver microtissues + FFA. In words: Hepatotoxicity in steatosis liver model (free fatty acids). It counts as cell-based. The settings on record: Homo sapiens, 336 h; free fatty acids added to medium; read-out: IC50, co-culture (14 days) + FFA (Fig. 3A). How it is done: as §3, with “for” for “for 7 days (TAK-994 administered on Days 0 and 4) or”, “9). The cell culture medium was supplemented with free fatty acids of 100 μM of Oleic acid and 66 μM of Palmitic acid.” for “9).”, “Day” for “Days 7 or”, “Days” for “Days 4 and 7 or on Days”, “controls. Cellular triglyceride content was measured in the microtissues on Day 14.” for “controls.”
as §4

For data set [4], the system named is human hepatocytes. Also noted: method as in Thompson et al. 2012. The conditions noted are these: ref Thompson et al. 2012; cited from earlier work.
Data set [5] in a line: HepG2 Glu/Gal 24-h cytotoxicity (mitochondrial toxicity). The class given is cell-based, human. The settings on record: human, HepG2 cells. How it is done: (§5) Cytotoxicity of TAK-994 was evaluated in glucose or galactose medium after 24 h and in glucose medium after 72 h in HepG2 cells, with cryopreserved HepG2 cells thawed and seeded onto assay plates at 5,000 cells/well in glucose or galactose medium for the 24-h assay and at 2,500 cells/well in glucose medium for the 72-h assay. After ∼24 h of incubation at 37 °C in 5% CO2, the cells were incubated with test solutions under the same conditions for 24 h for the plate with 5,000 cells/well or 72 h for the plate with 2,500 cells/well. Cytotoxicity of TAK-994 was also assessed using HepG2 cells with CYP3A4 overexpression using a lentivirus vector. HepG2/CYP3A4 cells were incubated in media containing TAK-994 (0.09 to 200 μM), positive control aflatoxin B1 (0.04 to 80 μM), or 1.0% DMSO (negative control). In both cytotoxicity assays, adenosine triphosphate (ATP) content was assessed after incubation using a commercial luminescence assay (CellTiter-Glo; Promega Co., Ltd, WI, United States).
HepG2 cells (American Type Culture Collection [ATCC, VA, USA]) were acclimated to Dulbecco's Modified Eagle Medium (DMEM; Thermo Fisher Scientific, MA, USA) with either high glucose or high galactose and containing 10% FBS for 1 week then cryopreserved. […] After the incubation, CellTiter-Glo® (Promega Co., Ltd., WI, USA) was added to the assay plates, cells were incubated for 30 minutes, and luminescence was recorded to measure the ATP content using an EnVision plate reader (PerkinElmer Co., Ltd., MA, USA). The test compound TAK-994 was evaluated at concentrations of 0.046, 0.14, 0.41, 1.2, 3.7, 11, 33, and 100 μM. Positive controls rotenone and staurosporine were purchased from FUJIFILM Wako Pure Chemical Corporation (Osaka, Japan) and evaluated at concentrations of 0.046, 0.14, 0.41, 1.2, 3.7, 11, 33, and 100 μM in DMSO (rotenone) or 0.0046, 0.014, 0.041, 0.12, 0.37, 1.1 , 3.3, and 10 μM in DMSO (staurosporine). […]

The nature of data set [6]: HepG2 72-h cytotoxicity assay (glucose medium, ATP content). The class given is cell-based, human. The settings on record: human, HepG2 cells. As to the method:
as §5
HepG2 cells (American Type Culture Collection [ATCC, VA, USA]) were acclimated to Dulbecco's Modified Eagle Medium (DMEM; Thermo Fisher Scientific, MA, USA) with either high glucose or high galactose and containing 10% FBS for 1 week then cryopreserved. The cryopreserved HepG2 cells were thawed, cultured for 24 hours, then seeded at 5000 cells/well in glucose or galactose medium for the 24-hour assay and at 2500 cells/well in glucose medium for the 72-hour assay onto the assay plates. After approximately 24 hours of incubation at 37°C in 5% CO2, the cells were incubated with test solutions under the same conditions for 24 hours for the plate with 5000 cells/well or 72 hours for the plate with 2500 cells/well. After the incubation, CellTiter-Glo® (Promega Co., Ltd., WI, USA) was added to the assay plates, cells were incubated for 30 minutes, and luminescence was recorded to measure the ATP content using an EnVision plate reader (PerkinElmer Co., Ltd., MA, USA). The test compound TAK-994 was evaluated at concentrations of 0.046, 0.14, 0.41, 1.2, 3.7, 11, 33, and 100 μM. Positive controls rotenone and staurosporine were purchased from FUJIFILM Wako Pure Chemical Corporation (Osaka, Japan) and evaluated at concentrations of 0.046, 0.14, 0.41, 1.2, 3.7, 11, 33, and 100 μM in DMSO (rotenone) or 0.0046, 0.014, 0.041, 0.12, 0.37, 1.1 , 3.3, and 10 μM in DMSO (staurosporine). Two experiments were conducted at each concentration.
Inhibition rate (%) = (1-mean of sample values / mean of Max values) × 100, where Max values = vehicle control.

Data set [7] has as its system human liver microtissues. In words: Glutathione depletion (BSO) assay in liver microtissues. The class given is cell-based. How it is done:
as §1
Co-culture model cells were pretreated with BSO (150 μM in DMSO) and then exposed to TAK-994 (0.1, 0.3, 1, 3.16, 10, 31.6, or 100 μM in 0.5% DMSO) in the presence and absence of BSO for 14 days (during the treatment period, TAK-994 with or without BSO was administered on Days 0, 5, and 9). Six replicates were tested for each condition. The vehicle control was 0.5% DMSO and the positive control was acetaminophen (0.6, 1.25, 2.5, or 5 mM in Medium TOX). Cellular ATP content was measured in the cell lysate on Day 14 of treatment. LDH release was measured on Days 5, 9, and 14 in the cell supernatant. For cells administered BSO alone, cellular ATP content was also measured on Day 3 and LDH release was also determined between Days 0 to 3. LDH measurements were normalized to lysed controls. Cellular GSH content was measured by GSH-Glo™ Glutathione Assay (Promega) on Days 0, 3, and 14 in the positive control group.
as §4

The values below come from article PMC11939078, “TAK-994 mechanistic investigation into drug-induced liver injury” (Toxicological Sciences, 2025).

pIC50: −log10 of the molar value. Where two headings read alike, the source gives them in different places.

Consider `CN(C)CCCN1c2ccccc2Sc2ccc(Cl)cc21` [Chlorpromazine, chlorpromazine, reference compound], for which the negative logarithm of the IC50 (pIC50) in data set [1] (Homo sapiens, 336 h, without FFA, read-out: IC50, co-culture (14 days) (Fig. 3A)) was 5.21; in data set [1] (Homo sapiens, cellular ATP, read-out: IC50, liver microtissues (Fig. 2B)), 5.12; in data set [2] it was 5.03; in data set [3], 5.08.

Turning to `Cc1c(C(=O)NN2CCCCC2)nn(-c2ccc(Cl)cc2Cl)c1-c1ccc(Cl)cc1` [rimonabant], the “CVB of marketed drugs without high risk of hepatotoxicity” value in data set [4] is given as “elevated CVB”.

On to `COc1cccc([C@H]2O[C@H](CC(=O)N3CCC(CC(=O)O)CC3)C(=O)N(CC(C)(C)COC(C)=O)c3ccc(Cl)cc32)c1OC` [TAK-475], for which the negative-log IC50 (pIC50) in data set [1] (Homo sapiens, 336 h, read-out: Liver microtissue toxicity for 14 days IC50) was 4.23. Further, in data set [1], the “detection of hepatotoxicity by HepG2 72-h / human liver microtissue assays” value is on record as “detected”. The compound further displayed an IC50 at 24 h in data set [5] greater than 100 µM. This compound also displayed an IC50 at 72 h in data set [6] greater than 100 µM.

With `CC(=O)Nc1ccc(O)cc1` [acetaminophen, reference compound], the “sensitization of liver microtissues by buthionine sulfoximine depletion” value in data set [7] is given as “induced liver microtissue sensitivity”.

As to `Cc1cc(OCCCS(C)(=O)=O)cc(C)c1-c1cccc(COc2ccc3c(c2)OC[C@H]3CC(=O)O)c1` [TAK-875], in data set [1] (read-out: Liver microtissue toxicity for 14 days IC50), the negative-log IC50 (pIC50) is 4.90. Also, the “detection of hepatotoxicity by HepG2 72-h / human liver microtissue assays” value in data set [1] is “detected”. The compound further showed an IC50 at 24 h in data set [5] greater than 100 µM. This compound also showed a 50% inhibitory concentration (IC50) at 72 h in data set [6] greater than 100 µM.

By pIC50 is commonly meant the IC50 on a negative log10 scale, so that one unit is a factor of ten. The IC50 is the midpoint of a concentration-inhibition curve.
